Numbers after ± are expanded uncertainties.

The conditions of this data set: Crystal; Heating/Cooling curves.
Consider `[N-]=[N+]=O` [nitrous oxide], for which the Triple point temperature stood at 181.99 ± 0.2 K.
As to `O=C=O` [carbon dioxide], the Triple point temperature is given as 216.56 ± 0.2 K.
As for `FC(F)C(F)(F)F` [pentafluoroethane], the Triple point temperature is on record as 173.05 ± 0.2 K.
